# Results published in patent US6767741B1, “Metal binding compounds and their use in cell culture medium compositions” (Invitrogen Corporation, priority 1999, dated 2004).
# Tests used:
# Assay type in all cases: cell-based
# [1] = tested on: 293 cells; assay: Growth of 293 cells in transferrin-free 293 SFM with metal binding compounds; conditions: third passage
# Description: Semi-confluent adherent cultures of 293 Cells (ATCC, CRL 1573) are readily adapted to suspension culture. The cells are first detached with a solution of Trypsin-EDTA (0.05% Trypsin, 0.53 mM Na4EDTA), and then resuspended in conventional medium supplemented with 10% FBS to inhibit the trypsin. The resuspended cells are centrifuged at 200×g for five minutes. The cell pellet is resuspended in 293 SFM (available from Life Technologies, Rockville, Md.) the formulation of which is described in WO 98/08934 which is specifically incorporated herein by reference. Alternatively, the cells may be detached with Versene (Na4EDTA, 0.53 mM) and resuspended in 293 SFM.
# The initial seeding density of the 293 cells after conversion to suspension culture is 1×10^6 cells/mL. The cells are shaken on a rotary shaker at 150 rpm in a 37° C. incubator equilibrated with 8% CO2-92% air. When the cells reach a density of 1.5×10^6 cells/mL they are diluted with 293 SFM to a density of 3.0×10^5 cells/mL. Because 293 cells have a tendency to aggregate, the cells may be vortexed vigorously for approximately 45 seconds to obtain a predominantly single cell suspension at the time of passaging and counting. After several passages in suspension culture, the maximum achievable density may be determined.
# The ability of metal binding compounds to support cellular growth was evaluated using 293 cells maintained in 293 SFM (Life Technologies, Rockville, Md.) without transferrin or metal binding compound. Stock cultures containing 5 μg/mL human holo-transferrin were prepared in 293 SFM. For metal binding compound evaluation, 293 cells were established in 125 mL shaker flasks at an initial viable seeding density of 2×10^5 cells/mL in a final volume of 20 mL. All cultures were maintained at 37° C. in humidified air containing 8% CO2. To eliminate transferrin carry-over effects, cells were subcultured at 4 day intervals for a total of three passages. At each subculturing, cells were seeded at a density of 2×10^5 cells/mL. Positive control cultures contained 5 μg/mL human holo-transferrin while negative control cultures were established in the absence of either transferrin or metal binding compound. Metal binding compound stocks were prepared at 0.1M-0.2M in ddH2O and solubilized when necessary using 5N NaOH or HCl. Iron complexes were established using 0.2M metal binding compound and iron stocks mixed 1:1 (v/v) and incubated for 5-10 minutes at 22° C. All solutions containing metal binding compounds were filter sterilized using a 0.22 μm Millex-GV filter prior to addition to transferrin and serum-free media.
# In most cases, metal binding compounds were evaluated either alone or in combination with ferric chloride or ferrous sulfate at 25 μM, 50 μM and 100 μM. When used in combination, the metal binding compounds were used in equimolar concentration with iron ions. Values in the table represent the mean percentage of control growth for duplicate cultures determined at the third passage.
# (§1) When added to the medium formulation un-complexed, the metal binding compound is listed alone, when added as a complex with a transition metal, the source of the transition metal is listed with the metal binding compound.
# [2] = tested on: CHO cells; assay: Growth of CHO cells in transferrin-free CD CHO medium with metal binding compounds; conditions: third passage, control = 5 μg/mL human holo-transferrin, duplicate cultures
# Description: The ability of metal binding compounds to support cellular growth in the absence of transferrin was evaluated using CHO cells maintained in CD CHO medium (Life Technologies, Rockville, Md., the formulation of which is described in WO 98/08934). Stock cultures containing 5 μg/mL human holo-transferrin were prepared in CD CHO medium. For metal binding compound evaluation, CHO cells were established in 125 mL shaker flasks at an initial viable seeding density of 1×10^5 cells/mL in a final volume of 20 mL. All cultures were maintained at 37° C. in humidified air containing 8% CO2. To eliminate transferrin carry-over effects, cells were subcultured at 4 day intervals for a total of three passages. Positive control cultures contained 5 μg/mL human holo-transferrin while negative control cultures were established in the absence of either transferrin or metal binding compound. Metal binding compound stocks were prepared at 0.1M-0.2M in ddH2O and solubilized when necessary using 5N NaOH or HCl. Iron complexes were established using 0.2M metal binding compound and iron stocks mixed 1:1 (v/v) and incubated for 5-10 minutes at 22° C. All solutions containing metal binding compounds were filter sterilized using a 0.22 μm Millex-GV filter prior to addition to transferrin and serum-free media.
# (§2) In most cases, metal binding compounds were evaluated either alone or in combination with ferric chloride or ferrous sulfate at 25 μM, 50 μM and 100 μM. Values in the table represent the mean percentage of control growth for duplicate cultures determined at the third passage.
# as §1, with “The ability of various metal binding compounds to substitute for transferrin in the culture of CHO cells was determined. When” for “When”
# [3] = tested on: Sp2/0 cells; assay: Growth of Sp2/0 cells in transferrin-free CD Hybridoma medium with metal binding compounds; conditions: third passage
# Description: The ability of iron metal binding compounds to support cellular growth in the absence of transferrin was evaluated using Sp2/0 cells maintained in CD Hybridoma medium (Life Technologies, Rockville, Md.). Stock cultures containing 5 μg/mL human holo-transferrin were prepared in CD Hybridoma medium. For metal binding compound evaluation, Sp2/0 cells were established at an initial viable cell density of 0.5×10^5 cells/mL in stationary culture using 75 cm^2 tissue culture flasks in a final volume of 20 mL. All cultures were maintained at 37° C. in humidified air containing 8% CO2. To eliminate transferrin carry-over effects, cells were subcultured at the same seeding density at 4 day intervals for a total of three passages. Positive control cultures contained 5 μg/mL human holotransferrin while negative control cultures were established in the absence of either transferrin or metal binding compound. Metal binding compound stocks were prepared at 0.1M-0.2M in ddH2O and solubilized when necessary using 5N NaOH or HCl. Iron complexes were established using 0.2M metal binding compound and iron stocks mixed 1:1 (v/v) and incubated for 5-10 minutes at 22° C. All solutions containing metal binding compounds were filter sterilized using a 0.22 μm Millex-GV filter prior to addition to transferrin and serum-free media.
# as §2, §1
# [4] = 25 μM, control = 5 μg/mL human holo-transferrin, duplicate cultures
# [5] = 50 μM, control = 5 μg/mL human holo-transferrin, duplicate cultures
# [6] = 100 μM, control = 5 μg/mL human holo-transferrin, duplicate cultures
SMILES,"mean percentage of control growth [1, 4] [%]","mean percentage of control growth [1, 5] [%]","mean percentage of control growth [1, 6] [%]","mean percentage of control growth [3, 4] [%]","mean percentage of control growth [3, 5] [%]","mean percentage of control growth [3, 6] [%]",also measured
"[Cl][Fe]([Cl])[Cl].c1ccc(-c2ccccn2)nc1 [2,2-Dipyridyl · Ferric Chloride]",51,96,0,,,,
"O=C(O)c1cccc(O)c1O.[Cl][Fe]([Cl])[Cl] [2,3-Dihydrobenzoic Acid · Ferric Chloride]",,,,,,,mean percentage of control growth ([2]; 25 μM): 71%; mean percentage of control growth ([2]; 50 μM): 0%; mean percentage of control growth ([2]; 100 μM): 0%
O=C(O)c1cccnc1O.[Cl][Fe]([Cl])[Cl] [2-Hydroxynicotinic Acid · Ferric Chloride],,,,64,82,85,"mean percentage of control growth ([1]; 100 μM (row note: 293 tested at 100, 150, 200 μM; first column)): 0%; mean percentage of control growth ([1]; 150 μM (row note: 293 tested at 100, 150, 200 μM; second column)): 0%; mean percentage of control growth ([1]; 200 μM (row note: 293 tested at 100, 150, 200 μM; third column)): 99%"
O=C(O)c1ccccn1.O=S(=O)([O-])[O-].[Fe+2] [2-Pyridinecarboxylic Acid · Ferrous Sulfate],67,48,0,,,,
"Cc1occc(=O)c1O [3-Hydroxy-2-Methyl-4-Pyrone (Maltol), 3-Hydroxy-2-Methyl-4-Pyrone]",0,28,81,0,0,0,
Cc1occc(=O)c1O.[Cl][Fe]([Cl])[Cl] [3-Hydroxy-2-Methyl-4-Pyrone · Ferric Chloride],,,,60,71,75,
O=[N+]([O-])c1ncccc1O.[Cl][Fe]([Cl])[Cl] [3-Hydroxy-2-Nitropyridine · Ferric Chloride],,,,52,62,72,
O=S(=O)([O-])[O-].[Fe+2].[O-][n+]1cccc(O)c1 [3-Hydroxypyridine-N-Oxide · Ferrous Sulfate],104,58,0,,,,
[O-][n+]1cccc(O)c1 [3-Hydroxypyridine-N-Oxide],4,4,4,,,,
CC(=O)NO.[Cl][Fe]([Cl])[Cl] [Acetohydroxamic Acid · Ferric Chloride],83,22,0,,,,"mean percentage of control growth ([3]; 5 μM, control = holo-transferrin): 40%; mean percentage of control growth ([3]; 10 μM, control = holo-transferrin): 48%; mean percentage of control growth ([3]; 20 μM, control = holo-transferrin): 47%"
NC(=O)CC(N)C(=O)O.[Cl][Fe]([Cl])[Cl] (stereo not drawn) [Asparagine · Ferric Chloride],,,,36,51,54,
O=C(O)CN(CCN(CC(=O)O)CC(=O)O)CCN(CC(=O)O)CC(=O)O.[Cl][Fe]([Cl])[Cl] [Diethylenetriamine Penta-Acetic Acid · Ferric Chloride],79,96,102,,,,
NC(CCC(=O)O)C(=O)O.[Cl][Fe]([Cl])[Cl] (stereo not drawn) [Glutamic Acid · Ferric Chloride],102,68,83,,,,
NCC(=O)O.[Cl][Fe]([Cl])[Cl] [Glycine · Ferric Chloride],81,71,72,34,61,56,
NCCCCC(N)C(=O)O.[Cl][Fe]([Cl])[Cl] (stereo not drawn) [Lysine · Ferric Chloride],,,,,,,mean percentage of control growth ([2]; 25 μM): 51%; mean percentage of control growth ([2]; 50 μM): 79%; mean percentage of control growth ([2]; 100 μM): 98%
NC(Cn1ccc(=O)c(O)c1)C(=O)O.[Cl][Fe]([Cl])[Cl] (stereo not drawn) [Mimosine · Ferric Chloride],64,55,80,,,,
C1COCCN1.[Cl][Fe]([Cl])[Cl] [Morpholine · Ferric Chloride],,,,54,64,81,
OC1C(O)C(O)C(O)C(O)C1O.[Cl][Fe]([Cl])[Cl] (stereo not drawn) [Myo-Inositol · Ferric Chloride],79,87,85,,,,
CC(=O)N[C@@H](CS)C(=O)O.[Cl][Fe]([Cl])[Cl] [N-Acetyl-Cysteine · Ferric Chloride],88,82,52,,,,
O=C(O)CN(CC(=O)O)CC(=O)O.O=S(=O)([O-])[O-].[Fe+2] [Nitriloacetic Acid · Ferrous Sulfate],75,95,0,,,,
O=C(O)CN(CC(=O)O)CC(=O)O [Nitriloacetic Acid],,,,0,0,0,
O=S(=O)([O-])[O-].OC[C@@H](O)[C@@H](O)[C@H](O)[C@@H](O)CO.[Fe+2] [Sorbitol · Ferrous Sulfate],58,69,83,,,,
